Assay results reported in patent US20150351390A1, “COMPOSITIONS AND METHODS FOR AUXIN-ANALOG CONJUGATION” (PIONEER HI-BRED INTERNATIONAL, INC., priority 2012, published 2015).

Assays:
Soybean seeds = assay: Phytotoxicity evaluation during soybean germination; type: in vivo; settings: 1 μM in germination media, 10 days
Procedure: To evaluate the effect of synthetic auxin conjugates in plants, 2,4-D-Asp, 2,4-D-Glu, dicamba-Asp, and dicamba-Glu were synthesized (Irvine Chemistry Laboratory, Anaheim, Calif.) and tested for auxin effects during soybean germination.
Asp and Glu conjugates of 2,4-D and dicamba were dissolved in a small quantity of Na2CO3 and ethanol, respectively, diluted in ddH2O to obtain 10 mM stock solution, and filter sterilized. Soybean seeds of a Pioneer elite germplasm were sterilized with chlorine gas as following: a) two layers of seeds were placed in a 100×25 mm plastic Petri dish; b) in an exhaust fume hood, seeds were placed into a glass desiccator with a 250 mL beaker containing 100 mL bleach (5% NaOC1) and 3.5 mL 12N HCl was slowly added to the beaker; c) the lid was sealed closed on the desiccator and the seeds sterilized for at least 24 hr.
Sterilized soybean seeds were then imbibed in ddH2O under sterile conditions at 25° C. for 24 hours before germination test. For germination test, 6-8 imbibed seeds were placed on a 100×25 mm deep Petri dish plate containing 50 ml germination media supplemented with or without auxin herbicide conjugates. 1 L seed germination media contains 3.21 g GAMBORG B-5 basal medium (PhytoTech), 20 g sucrose, 5 g tissue culture agar, and is pH adjusted to 5.7. Media was autoclaved at 121° C. for 25 min and cooled to 60° C. before the addition of auxin conjugates. Germination was carried out in a Percival growth chamber at 25° C. under 18 hr light and 6 hr dark cycle at 90 to 150 μE/m2/s and grown for 10 days.

soybean seedlings = assay: Soybean seedling response to spot infiltrated auxins and conjugates; type: in vivo; settings: for 1st trifoliate leaf curl: spot infiltration; for 1st trifoliate leaf curl: key: 0 = no phenotype; +/− = threshold
[1] = test system: Arabidopsis ecotype Col-0 plant; assay: Arabidopsis response to spot infiltrated auxins and conjugates; type: in vivo, Arabidopsis thaliana; settings: 50, 150, and 500 μM; result in words
Procedure: The effect of auxin conjugates was assessed using Arabidoposis (Arabidopsis thialiana) ecotype Col-0 plant. Prior to studies utilizing the auxin conjugates, levels of analytical grade (98%+pure) IAA, 2,4-D and dicamba in solution were applied at various concentrations directly to developmentally similar leaves of 20-23 day old Arabidopsis seedlings by needleless syringe spot infiltration methodology, in order to determine range of auxinic response and severity. Phenotypes were documented relative to control at 1 day post-spot infiltration and subsequently every other day, up to nine days post treatment. Three concentrations were chosen based on reproducibility, and conjugated forms were then studied with 4 or more replicate treatments for each, along with appropriate negative controls (H2O and 10% EtOH).
Examples 9 and 10 utilized a spot infiltration method for the delivery of an herbicide directly to leaves of a plant. The method generally allows for the directed delivery of a variety of agents to a localized area of a plant, e.g. localized region of leaves, for screening or assessment purposes, e.g. to quickly assess the response of a plant to the agent. As used in the foregoing examples, the spot infiltration method was used to introduce specific herbicides or specific conjugates of the herbicides to seedling plant leaves. Following introduction of the herbicide or the appropriate conjugate, plants were observed daily for nine days for characteristics of epinasty, trifoliate leaf curly, chlorosis, and new growth recovery.
Briefly, a solution of the desired agent is prepared of the desired agent, e.g. as described above in Example 10, solutions (5% EtOH) of 1, 2.5 and 5 mM IAA. The solution is then drawn into a 1 mL BD™ slip-tip syringe, bulk, non-sterile syringe (e.g. Becton, Dickinson and Company, Product No. 301025) with 100 μL markings. The desired volume is then applied to the leaf, e.g. as described in Examples 9 and 10, with the tip of the syring against the leaf and positive pressure applied to the syringe plunger. Sufficient pressure is applied in order to infuse the area beneath the syringe opening, but not so much pressure as to cause a visible-to-the-eye puncture or hole to form in the leaf. Some run-off of solution around the syringe opening is expected. In the foregoing examples, two spots were applied to each of two leaves per seedling for soybean plants. […] In soybean, both spots per leaf were at the distal portion of the leaf about 1-2 cm apart. When the method was applied to Arabidopsis, two developmentally intermediate aged leaves were chosen per plant, and one spot infiltration was carried out per leaf.
Generally, for Arabidopsis, the two leaves were chosen from opposite sides of rosette. In general, the spot infiltration method is carried out on younger plants in order to minimize experimental footprint and to maintain developmental uniformity. However, the method is not limited to use on young plants and can be easily applied to older plants as determined by the goals of a particular experiment.

## O=C(O)COc1ccc(Cl)cc1Cl [2,4-D, 2,4-dichlorophenoxyacetic acid]
Soybean seeds
  Soybean seed germination and growth: seed germination was arrested
Soybean seedlings; 100 μM
  1st trifoliate leaf curl: 0
Soybean seedlings; 250 μM
  1st trifoliate leaf curl: 0
Soybean seedlings; 500 μM
  1st trifoliate leaf curl: 0
Soybean seedlings; 100, 250 & 500 μM, result in words
  Plant response phenotype, soybean: increased auxinic response ranging from mild to extreme epinasty
[1]
  Phenotype, Arabidopsis: increased auxinic response ranging from mild to more extreme epinasty
